Tested on: 947758-054-R-J2-PDC spheroid growth, percent test/control
Test: Anticancer human tumor 947758-054-R-J2-PDC patient-derived colon adenocarcinoma cell line growth inhibition [CLK]
Conditions: spheroids with HUVEC and MSC; for IC50: curve of first compound; for viability, T/C: stronger effect = lower value
Outline: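 Multi-cell-type spheroids combined patient-derived tumor cells with HUVEC endothelial cells and human mesenchymal stem cells. Paired agents were dosed in half-log steps down from about clinical Cmax, or from 10 microM where Cmax was unknown.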
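Note: spheroids exposed to compounds for one week before readout.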
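Throughout, for viability, T/C: 100% = DMSO vehicle control wells.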

## CC(C)CC(NC(=O)C(Cc1ccccc1)NC(=O)c1cnccn1)B(O)O (centres undefined) + CN1CCN(c2cc(C(=O)Nc3cc4cc(-c5cnn(C)c5)ccc4cn3)ccn2)CC1
Second compound 0.0316 µM
  IC50: 1.92 nM
Second compound 0.1 µM
  IC50: 2.41 nM
Second compound 0.316 µM
  IC50: < 0.949 nM
Second compound 1 µM
  IC50: < 0.949 nM
Second compound 3.16 µM
  IC50: < 0.949 nM
Second compound 10 µM
  IC50: < 0.949 nM
Second compound 0.0316 µM, first compound 0.000949 µM
  viability, T/C: 121%
Second compound 0.0316 µM, first compound 0.003 µM
  viability, T/C: 5.43%
Second compound 0.0316 µM, first compound 0.00949 µM
  viability, T/C: 0.78%
Second compound 0.0316 µM, first compound 0.03 µM
  viability, T/C: 0.27%
Second compound 0.0316 µM, first compound 0.0949 µM
  viability, T/C: 0.29%
Second compound 0.0316 µM, first compound 0.3 µM
  viability, T/C: 0.27%
Second compound 0.1 µM, first compound 0.000949 µM
  viability, T/C: 229%
Second compound 0.1 µM, first compound 0.003 µM
  viability, T/C: 7.59%
Second compound 0.1 µM, first compound 0.00949 µM
  viability, T/C: 0.31%
Second compound 0.1 µM, first compound 0.03 µM
  viability, T/C: 0.29%
Second compound 0.1 µM, first compound 0.0949 µM
  viability, T/C: 0.32%
Second compound 0.1 µM, first compound 0.3 µM
  viability, T/C: 0.3%
Second compound 0.316 µM, first compound 0.000949 µM
  viability, T/C: 1.38%
Second compound 0.316 µM, first compound 0.003 µM
  viability, T/C: 0.21%
Second compound 0.316 µM, first compound 0.00949 µM
  viability, T/C: 0.22%
Second compound 0.316 µM, first compound 0.03 µM
  viability, T/C: 0.22%
Second compound 0.316 µM, first compound 0.0949 µM
  viability, T/C: 0.2%
Second compound 0.316 µM, first compound 0.3 µM
  viability, T/C: 0.23%
Second compound 1 µM, first compound 0.000949 µM
  viability, T/C: 0.14%
Second compound 1 µM, first compound 0.003 µM
  viability, T/C: 0.15%
Second compound 1 µM, first compound 0.00949 µM
  viability, T/C: 0.15%
Second compound 1 µM, first compound 0.03 µM
  viability, T/C: 0.16%
Second compound 1 µM, first compound 0.0949 µM
  viability, T/C: 0.18%
Second compound 1 µM, first compound 0.3 µM
  viability, T/C: 0.15%
Second compound 3.16 µM, first compound 0.000949 µM
  viability, T/C: 0.21%
Second compound 3.16 µM, first compound 0.003 µM
  viability, T/C: 0.12%
Second compound 3.16 µM, first compound 0.00949 µM
  viability, T/C: 0.12%
Second compound 3.16 µM, first compound 0.03 µM
  viability, T/C: 0.13%
Second compound 3.16 µM, first compound 0.0949 µM
  viability, T/C: 0.21%
Second compound 3.16 µM, first compound 0.3 µM
  viability, T/C: 2.33%
Second compound 10 µM, first compound 0.000949 µM
  viability, T/C: 0.34%
Second compound 10 µM, first compound 0.003 µM
  viability, T/C: 0.18%
Second compound 10 µM, first compound 0.00949 µM
  viability, T/C: 1.25%
Second compound 10 µM, first compound 0.03 µM
  viability, T/C: 0.16%
Second compound 10 µM, first compound 0.0949 µM
  viability, T/C: 0.21%
Second compound 10 µM, first compound 0.3 µM
  viability, T/C: 1.68%

## CC1COCCN1c1cc(C2(S(C)(=N)=O)CC2)nc(-c2ccnc3[nH]ccc23)n1 (centres undefined) + CN1CCN(c2cc(C(=O)Nc3cc4cc(-c5cnn(C)c5)ccc4cn3)ccn2)CC1
Second compound 0.0316 µM
  IC50: 8190 nM
Second compound 0.1 µM
  IC50: 4290 nM
Second compound 0.316 µM
  IC50: < 31.6 nM
Second compound 1 µM
  IC50: < 31.6 nM
Second compound 3.16 µM
  IC50: < 31.6 nM
Second compound 10 µM
  IC50: < 31.6 nM
Second compound 0.0316 µM, first compound 0.0316 µM
  viability, T/C: 129%
Second compound 0.0316 µM, first compound 0.1 µM
  viability, T/C: 130%
Second compound 0.0316 µM, first compound 0.316 µM
  viability, T/C: 147%
Second compound 0.0316 µM, first compound 1 µM
  viability, T/C: 208%
Second compound 0.0316 µM, first compound 3.16 µM
  viability, T/C: 174%
Second compound 0.0316 µM, first compound 10 µM
  viability, T/C: 27.1%
Second compound 0.1 µM, first compound 0.0316 µM
  viability, T/C: 156%
Second compound 0.1 µM, first compound 0.1 µM
  viability, T/C: 161%
Second compound 0.1 µM, first compound 0.316 µM
  viability, T/C: 134%
Second compound 0.1 µM, first compound 1 µM
  viability, T/C: 111%
Second compound 0.1 µM, first compound 3.16 µM
  viability, T/C: 59.6%
Second compound 0.1 µM, first compound 10 µM
  viability, T/C: 20.6%
Second compound 0.316 µM, first compound 0.0316 µM
  viability, T/C: 4.56%
Second compound 0.316 µM, first compound 0.1 µM
  viability, T/C: 7.68%
Second compound 0.316 µM, first compound 0.316 µM
  viability, T/C: 5.32%
Second compound 0.316 µM, first compound 1 µM
  viability, T/C: 4.07%
Second compound 0.316 µM, first compound 3.16 µM
  viability, T/C: 7.49%
Second compound 0.316 µM, first compound 10 µM
  viability, T/C: 2.19%
Second compound 1 µM, first compound 0.0316 µM
  viability, T/C: 0.17%
Second compound 1 µM, first compound 0.1 µM
  viability, T/C: 0.18%
Second compound 1 µM, first compound 0.316 µM
  viability, T/C: 0.17%
Second compound 1 µM, first compound 1 µM
  viability, T/C: 2.01%
Second compound 1 µM, first compound 3.16 µM
  viability, T/C: 2.61%
Second compound 1 µM, first compound 10 µM
  viability, T/C: 0.13%
Second compound 3.16 µM, first compound 0.0316 µM
  viability, T/C: 0.74%
Second compound 3.16 µM, first compound 0.1 µM
  viability, T/C: 0.2%
Second compound 3.16 µM, first compound 0.316 µM
  viability, T/C: 0.39%
Second compound 3.16 µM, first compound 1 µM
  viability, T/C: 1.46%
Second compound 3.16 µM, first compound 3.16 µM
  viability, T/C: 1.04%
Second compound 3.16 µM, first compound 10 µM
  viability, T/C: 0.96%
Second compound 10 µM, first compound 0.0316 µM
  viability, T/C: 1.2%
Second compound 10 µM, first compound 0.1 µM
  viability, T/C: 0.28%
Second compound 10 µM, first compound 0.316 µM
  viability, T/C: 1.41%
Second compound 10 µM, first compound 1 µM
  viability, T/C: 1.13%
Second compound 10 µM, first compound 3.16 µM
  viability, T/C: 1.09%
Second compound 10 µM, first compound 10 µM
  viability, T/C: 0.51%
